Results: patent publication US7223728B2, “Synergistic use of thiazolidinediones with glucagon-like peptide-1 and agonists thereof to treat metabolic instability associated with non-insulin dependent diabetes” (Eli Lilly and Company, priority 1999, dated 2007)

System: Zucker Diabetic Fatty (ZDF) rats
Experiment: Seven-week co-administration study of TZD 300512 and IP^7-GLP-1 (7–37)OH in diabetic rats (heart weight, blood glucose, insulin)
Type: in vivo, rat
Excerpt: This study was designed to evaluate the effects of using a combination of sub-optimal doses of a TZD and a GLP-1 agonist on glucose metabolism and in addition, if this combination therapy would prevent occurrence of heart hypertrophy that is associated with optimal doses of TZD derivatives. Eight week old Zucker Diabetic Fatty (Genetic Models, Inc.) rats (ZDF) weighing about 350 grams were used in this study. Animals were allowed free access to water, and Purina Formulab 5008 chow. TZD 300512 was administered as 0.00006% diet admixture while IP^7-GLP-1 (7–37)OH, a GLP-1 agonist, was infused subcutaneously at a constant rate of 0.06 ug/min via implant Aztet pumps. The duration of study was seven weeks, and food consumption and body weight were monitored daily. Plasma glucose and insulin levels were measured weekly, and Glycated hemoglobin A1c was measured at the end of the study. Heart weights also were measured at the end of the study.
Table 1 summarizes final rat weight, daily food intake, plasma glucose levels, plasma insulin levels, Hbalc, and heart weight. Values were rounded off to the nearest decimal point.

[1] = ZDF rats, TZD 0.00006% diet admixture, IP^7 0.06 ug/min subcutaneous infusion, seven weeks
[2] = ZDF rats, measured at the end of the seven-week study

- Weight (final rat weight) [1]: 414.7 ± 7.9 g
- Heart wt [2]: 1.2 ± 0.03 g
Substance: 4-imidazopropionyl-GLP-1 (7–37)OH [IP^7]
- Glucose (plasma glucose level) (ZDF rats, fed state, TZD 0.00006% diet admixture, IP^7 0.06 ug/min subcutaneous infusion, seven weeks): 367.5 ± 58.0 mg/dL
- Food Int (daily food intake) [1]: 30.4 ± 1.2 g/day
- Insulin (plasma insulin level) [1]: 13.0 ± 2.9 ng/mL
- Hbalc (glycated hemoglobin A1c) [2]: 9.5 ± 1.0%
- Fed state plasma-glucose level as % of control levels (diabetic ZDF rats, 42-day treatment period): 57.5 % of control levels
- Course of plasma glucose levels over the 42-day treatment period (diabetic rats, 42-day treatment): increased
